pEC50: −log10 of the molar value.

These results are taken from ChEMBL document CHEMBL4130577, “Platanic acid: A new scaffold for the synthesis of cytotoxic agents” (Eur J Med Chem, 2018).

One experiment relates to 518A2. Nature of the experiment: Cytotoxicity against human 518A2 cells after 96 hrs by SRB assay. Type of experiment: functional, cell-based. The conditions noted are these: 518A2, 96 h. (The SRB assay estimates cell density from bound dye.)
A further experiment deals with A2780. As to the kind of experiment: Cytotoxicity against human A2780 cells after 96 hrs by SRB assay. The conditions noted are these: A2780, 96 h. The format is functional, cell-based.
For another experiment, the system named is MCF7. Nature of the experiment: Cytotoxicity against human MCF7 cells after 96 hrs by SRB assay. Type of experiment: functional, cell-based. The conditions noted are these: MCF7, 96 h.
Another experiment concerns A549. As to the kind of experiment: Cytotoxicity against human A549 cells after 96 hrs by SRB assay. The format is functional, cell-based. To be noted: A549, 96 h.
Another experiment relates to NIH3T3. As to the kind of experiment: Cytotoxicity against mouse NIH/3T3 cells after 96 hrs by SRB assay. Type of experiment: cell-based. To be noted: NIH3T3, 96 h.
For the next experiment, the system named is HT-29. As to the kind of experiment: cells. To be noted: Homo sapiens, HT-29, 96 h.

Description for HT-29: Cytotoxicity against human HT-29 cells after 96 hrs by SRB assay

What is called pEC50 is the negative decadic logarithm of the EC50, by convention in mol/L. Take `C[C@@H](N)[C@@H]1CC[C@]2(C(=O)OCc3ccccc3)CC[C@]3(C)[C@H](CC[C@@H]4[C@@]5(C)CC[C@H](O)C(C)(C)[C@@H]5CC[C@]43C)[C@@H]12`: the pEC50 was 5.12 in the experiment with 518A2; 5.12 with A2780; 5.25 in the experiment on MCF7; 5.00 in the experiment on A549; 5.14 with NIH3T3; 5.30 with HT-29.
Take `CC(=O)[C@@H]1CC[C@]2(C(=O)OCc3ccccc3)CC[C@]3(C)[C@H](CC[C@@H]4[C@@]5(C)CC[C@@H](N)C(C)(C)[C@@H]5CC[C@]43C)[C@@H]12`: the pEC50 in the experiment on 518A2 is 5.64; in the experiment with A2780, 5.55; with MCF7, 5.72; with A549, 5.44; in the experiment on NIH3T3 it was 5.60; in the experiment with HT-29, 5.62.
Turning to `COC(=O)[C@]12CC[C@@H]([C@H](C)NC(C)=O)[C@@H]1[C@H]1CC[C@@H]3[C@@]4(C)CC[C@H](OC(C)=O)C(C)(C)[C@@H]4CC[C@@]3(C)[C@]1(C)CC2`, the pEC50 in the experiment with 518A2 was 4.52; with A2780, 4.60; in the experiment with MCF7 it was 4.75; in the experiment on A549 it was 4.59; in the experiment on NIH3T3 it was 4.71; in the experiment with HT-29, 4.61.
For `CC(=O)O[C@H]1CC[C@]2(C)[C@H]3CC[C@@H]4[C@H]5[C@H](C(C)=O)CC[C@]5(C(=O)O)CC[C@@]4(C)[C@]3(C)CC[C@H]2C1(C)C`, the pEC50 in the experiment on 518A2, in the experiment on A2780, with MCF7, in the experiment with A549, in the experiment with NIH3T3 and with HT-29 was less than 4.52 each time.
As for `CC(=O)O[C@H]1CC[C@]2(C)[C@H]3CC[C@@H]4[C@H]5[C@H](C(C)=O)CC[C@]5(N=C=O)CC[C@@]4(C)[C@]3(C)CC[C@H]2C1(C)C`, the pEC50 with A2780, in the experiment with MCF7, in the experiment with NIH3T3 and in the experiment on HT-29 was less than 4.52 each time.
As to `COC(=O)[C@]12CC[C@@H](C(C)=O)[C@@H]1[C@H]1CC[C@@H]3[C@@]4(C)CC[C@H](O)C(C)(C)[C@@H]4CC[C@@]3(C)[C@]1(C)CC2`, the pEC50 in the experiment with A2780, in the experiment with MCF7, with A549, in the experiment on NIH3T3 and in the experiment on HT-29 was less than 4.52 in each case.
Take `CC(=O)O[C@H]1CC[C@]2(C)[C@H]3CC[C@@H]4[C@H]5[C@H]([C@@H](C)N)CC[C@]5(C(=O)OCc5ccccc5)CC[C@@]4(C)[C@]3(C)CC[C@H]2C1(C)C`: the pEC50 is 5.66 in the experiment with 518A2; 5.40 with A2780; 5.52 with MCF7; 5.51 with A549; 5.39 in the experiment with NIH3T3; 5.64 with HT-29.
Regarding `COC(=O)[C@]12CC[C@@H]([C@@H](C)NC(C)=O)[C@@H]1[C@H]1CC[C@@H]3[C@@]4(C)CC[C@H](OC(C)=O)C(C)(C)[C@@H]4CC[C@@]3(C)[C@]1(C)CC2`, the pEC50 is 4.57 in the experiment on 518A2; 4.56 with A2780; 4.67 in the experiment with MCF7; 4.64 with A549; 4.80 in the experiment on NIH3T3; 4.56 in the experiment on HT-29.
With `CC(=O)O[C@H]1CC[C@]2(C)[C@H]3CC[C@@H]4[C@H]5[C@H]([C@H](C)N)CC[C@]5(C(=O)OCc5ccccc5)CC[C@@]4(C)[C@]3(C)CC[C@H]2C1(C)C`, the pEC50 in the experiment on 518A2 is 5.60; in the experiment on A2780 it was 5.64; in the experiment with MCF7 it was 5.89; in the experiment with A549, 5.48; with NIH3T3 it was 5.70; in the experiment with HT-29, 5.89.
Consider `COC(=O)[C@]12CC[C@@H](NC(C)=O)[C@@H]1[C@H]1CC[C@@H]3[C@@]4(C)CC[C@H](O)C(C)(C)[C@@H]4CC[C@@]3(C)[C@]1(C)CC2`, for which the pEC50 in the experiment with A2780, in the experiment on MCF7, with A549, with NIH3T3 and with HT-29 was less than 4.52 in each case.
`CC(=O)O[C@H]1CC[C@]2(C)[C@H]3CC[C@@H]4[C@H]5[C@H](C(C)=O)CC[C@]5(C(=O)NCCN)CC[C@@]4(C)[C@]3(C)CC[C@H]2C1(C)C`: the pEC50 with 518A2 was 5.49; with A2780, 5.49; in the experiment on MCF7 it was 5.51; in the experiment with A549, 5.49; with NIH3T3 it was 5.68; with HT-29, 5.48.
Take `COC(=O)[C@]12CC[C@@H](/C(C)=N\O)[C@@H]1[C@H]1CC[C@@H]3[C@@]4(C)CC[C@H](OC(C)=O)C(C)(C)[C@@H]4CC[C@@]3(C)[C@]1(C)CC2`: the pEC50 is 5.01 in the experiment on 518A2; 4.89 with A2780; 4.92 in the experiment with MCF7; 5.06 in the experiment with A549; 4.91 in the experiment with NIH3T3; 4.89 in the experiment on HT-29.
As for `CC(=O)[C@@H]1CC[C@]2(C(=O)O)CC[C@]3(C)[C@H](CC[C@@H]4[C@@]5(C)CC[C@H](O)C(C)(C)[C@@H]5CC[C@]43C)[C@@H]12` [PLATANIC ACID], the pEC50 is 4.35 in the experiment on 518A2; 4.43 in the experiment on A2780; 4.47 in the experiment on MCF7; 4.33 with A549; 4.45 in the experiment with NIH3T3; 4.44 in the experiment with HT-29.
`CC(=O)O[C@H]1CC[C@]2(C)[C@H]3CC[C@@H]4[C@H]5[C@H](C(C)=O)CC[C@]5(C(=O)NCCN5CCCC5)CC[C@@]4(C)[C@]3(C)CC[C@H]2C1(C)C`: the pEC50 is 5.48 in the experiment with 518A2; 5.37 with A2780; 5.70 in the experiment on MCF7; 5.54 with A549; 6.22 with NIH3T3; 5.66 with HT-29.
On to `CC(=O)[C@@H]1CC[C@]2(C(=O)OCc3ccccc3)CC[C@]3(C)[C@H](CC[C@@H]4[C@@]5(C)CCC(=O)C(C)(C)[C@@H]5CC[C@]43C)[C@@H]12`, for which the pEC50 in the experiment with 518A2, in the experiment with A2780, in the experiment with MCF7, in the experiment with A549, with NIH3T3 and with HT-29 was less than 4.52 each time.
`COC(=O)[C@]12CC[C@@H](NC(C)=O)[C@@H]1[C@H]1CC[C@@H]3[C@@]4(C)CC[C@H](OC(C)=O)C(C)(C)[C@@H]4CC[C@@]3(C)[C@]1(C)CC2`: the pEC50 in the experiment with A2780 is 4.66; in the experiment with MCF7 it was 5.00; in the experiment with A549 it was 4.56; with NIH3T3 it was 4.62; in the experiment on HT-29 it was less than 4.52.
In the case of `CC(=O)OC[C@]12CC[C@@H]([C@@H](C)N)[C@@H]1[C@H]1CC[C@@H]3[C@@]4(C)CC[C@H](OC(C)=O)C(C)(C)[C@@H]4CC[C@@]3(C)[C@]1(C)CC2`, the pEC50 with 518A2 is 5.66; in the experiment on A2780, 5.60; in the experiment with MCF7, 5.68; in the experiment on A549, 5.64; in the experiment on NIH3T3 it was 5.40; with HT-29 it was 5.92.
On to `CC(=O)[C@@H]1CC[C@]2(C(=O)OCc3ccccc3)CC[C@]3(C)[C@H](CC[C@@H]4[C@@]5(C)CC[C@H](O)C(C)(C)[C@@H]5CC[C@]43C)[C@@H]12`, for which the pEC50 was 4.80 in the experiment on A2780; 5.05 in the experiment with MCF7; 4.80 with A549; 4.74 in the experiment with NIH3T3; 5.00 in the experiment with HT-29.
With `CNC(=O)[C@@H]1CC[C@]2(C(=O)OC)CC[C@]3(C)[C@H](CC[C@@H]4[C@@]5(C)CC[C@H](O)C(C)(C)[C@@H]5CC[C@]43C)[C@@H]12`, the pEC50 in the experiment with A2780, with MCF7, with A549, in the experiment on NIH3T3 and with HT-29 was less than 4.52 in each case.
Turning to `CN[C@@H]1C[C@H]2O[C@@](C)([C@@H]1OC)n1c3ccccc3c3c4c(c5c6ccccc6n2c5c31)C(=O)NC4` [STAUROSPORINE], the pEC50 with A2780 was 6.92; in the experiment on A549, 7.40; with NIH3T3 it was 8.10; in the experiment on HT-29, 6.82.
As to `CCC(=O)O/N=C(\C)[C@@H]1CC[C@]2(C(=O)OC)CC[C@]3(C)[C@H](CC[C@@H]4[C@@]5(C)CC[C@H](OC(C)=O)C(C)(C)[C@@H]5CC[C@]43C)[C@@H]12`, the pEC50 is 4.75 with 518A2; 4.87 in the experiment with MCF7; 4.88 in the experiment on A549; 4.82 with NIH3T3; 4.54 in the experiment with HT-29.
`COC(=O)[C@]12CC[C@@H](C(C)=O)[C@@H]1[C@H]1CC[C@@H]3[C@@]4(C)CC[C@H](OC(C)=O)C(C)(C)[C@@H]4CC[C@@]3(C)[C@]1(C)CC2`: the pEC50 in the experiment with A2780, with MCF7, in the experiment with NIH3T3 and with HT-29 was less than 4.52 in each case.
Consider `COC(=O)[C@]12CC[C@@H](/C(C)=N/OC(C)=O)[C@@H]1[C@H]1CC[C@@H]3[C@@]4(C)CC[C@H](OC(C)=O)C(C)(C)[C@@H]4CC[C@@]3(C)[C@]1(C)CC2`, for which the pEC50 in the experiment with 518A2 was 4.78; in the experiment on MCF7 it was 4.88; in the experiment with A549, 4.87; in the experiment with NIH3T3 it was 4.82; in the experiment with HT-29 it was 4.62.
In the case of `CC(=O)O[C@H]1CC[C@]2(C)[C@H]3CC[C@@H]4[C@H]5[C@H](C(C)=O)CC[C@]5(C(=O)OCc5ccccc5)CC[C@@]4(C)[C@]3(C)CC[C@H]2C1(C)C`, the pEC50 with A2780, in the experiment on MCF7, in the experiment on NIH3T3 and in the experiment with HT-29 was less than 4.52 in each case.
In the case of `CNC(=O)[C@@H]1CC[C@]2(C(=O)OC)CC[C@]3(C)[C@H](CC[C@@H]4[C@@]5(C)CC[C@H](OC(C)=O)C(C)(C)[C@@H]5CC[C@]43C)[C@@H]12`, the pEC50 in the experiment on A2780 is 4.95; in the experiment with MCF7 it was 4.86; with A549 it was less than 4.52; with NIH3T3, less than 4.52; with HT-29, less than 4.52.
